In experiment [1] the test system is BJ. Kind of experiment: cytotoxicity toward Ras-transformed BJeLR fibroblasts, dose response, cell-based, alamar blue fluorescence, cherrypicked samples (AID 2631).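 Further: confirmatory dose-response assay in RAS-dependent BJ fibroblasts engineered with TERT, LT and ST, with cytotoxicity read by fluorescence.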 The note with it: Homo sapiens. The experiment is classed as functional. (In general: The colour change of resazurin is a common sign of viable cells or microbes.)
The subject of experiment [2] is BJ. Kind of experiment: cytotoxicity toward BJ-TERT fibroblasts, dose response, cell-based, RAS-independent, luminescence (AID 1933). It counts as functional. The note with it: Homo sapiens.
In experiment [3] the test system is BJ. Kind of experiment: cells. It counts as functional, cell-based. The note with it: Homo sapiens.
A short description of experiment [4]: NIH-3T3 fibroblast cytotoxicity, dose response, cytotoxicity control, cell-based, fluorescence, Alamar Blue, secondary assay (AID 2327).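 Further: NIH-3T3 mouse fibroblasts cultured with fluconazole at 8 µg/mL.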 It counts as functional.
Experiment [5] concerns BJ. Kind of experiment: cytotoxicity toward BJ-TERT-LT-ST fibroblasts, dose response, cell-based, RAS-independent, luminescence (AID 1935).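 Further: BJ fibroblasts immortalized with TERT plus LT and ST oncogenes.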 The experiment is classed as functional. To be noted: Homo sapiens.
Experiment [6] is described as follows: cytotoxicity toward DRD oncogenic fibroblasts, dose response, cell-based, non-viral oncogenic, luminescence (AID 1934). The experiment is classed as functional. To be noted: Homo sapiens.
Experiment [7] in a line: C. albicans growth with fluconazole, confirmation, fluorescence, retest (AID 2467). It counts as functional, cell-based.
Experiment [8] is described as follows: growth suppression of beta-catenin-knockout colon cells, dose response, cell-based, HCT116, human colon tumor (AID 1045).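 Further: HCT116 colon tumor cells with beta catenin knocked out; cells exposed to compound for 60 hours.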 It counts as functional.
Experiment [9] is described as follows: growth suppression of PTEN-null colon cells, dose response, cell-based, HCT116 PTEN knockout (AID 1047).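 Further: HCT116 colon tumor cells with PTEN knocked out; cells exposed to compound for 60 hours before readout; potency for loss of cell viability measured by luminescence.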 The experiment is classed as functional.
For another experiment, the system named is HeLa. Kind of experiment: HeLa cell cytotoxicity, dose response, cytotoxicity control for MITF activator project, CellTiter-Glo luminescence, cherry-pick samples (AID 540259). The experiment is classed as functional, cell-based. The note with it: Homo sapiens. On the technique in general: In ATP-based viability assays light output follows the ATP content of the culture.

The target of experiment [10] is T1, Sentrin-specific protease 6 (Homo sapiens, UniProt Q9GZR1).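 Further: Luminescence-based dose-response confirmatory assay of SENP6 inhibition, following up an ultra-high-throughput screen.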
T1 sequence (Q9GZR1 whole entry): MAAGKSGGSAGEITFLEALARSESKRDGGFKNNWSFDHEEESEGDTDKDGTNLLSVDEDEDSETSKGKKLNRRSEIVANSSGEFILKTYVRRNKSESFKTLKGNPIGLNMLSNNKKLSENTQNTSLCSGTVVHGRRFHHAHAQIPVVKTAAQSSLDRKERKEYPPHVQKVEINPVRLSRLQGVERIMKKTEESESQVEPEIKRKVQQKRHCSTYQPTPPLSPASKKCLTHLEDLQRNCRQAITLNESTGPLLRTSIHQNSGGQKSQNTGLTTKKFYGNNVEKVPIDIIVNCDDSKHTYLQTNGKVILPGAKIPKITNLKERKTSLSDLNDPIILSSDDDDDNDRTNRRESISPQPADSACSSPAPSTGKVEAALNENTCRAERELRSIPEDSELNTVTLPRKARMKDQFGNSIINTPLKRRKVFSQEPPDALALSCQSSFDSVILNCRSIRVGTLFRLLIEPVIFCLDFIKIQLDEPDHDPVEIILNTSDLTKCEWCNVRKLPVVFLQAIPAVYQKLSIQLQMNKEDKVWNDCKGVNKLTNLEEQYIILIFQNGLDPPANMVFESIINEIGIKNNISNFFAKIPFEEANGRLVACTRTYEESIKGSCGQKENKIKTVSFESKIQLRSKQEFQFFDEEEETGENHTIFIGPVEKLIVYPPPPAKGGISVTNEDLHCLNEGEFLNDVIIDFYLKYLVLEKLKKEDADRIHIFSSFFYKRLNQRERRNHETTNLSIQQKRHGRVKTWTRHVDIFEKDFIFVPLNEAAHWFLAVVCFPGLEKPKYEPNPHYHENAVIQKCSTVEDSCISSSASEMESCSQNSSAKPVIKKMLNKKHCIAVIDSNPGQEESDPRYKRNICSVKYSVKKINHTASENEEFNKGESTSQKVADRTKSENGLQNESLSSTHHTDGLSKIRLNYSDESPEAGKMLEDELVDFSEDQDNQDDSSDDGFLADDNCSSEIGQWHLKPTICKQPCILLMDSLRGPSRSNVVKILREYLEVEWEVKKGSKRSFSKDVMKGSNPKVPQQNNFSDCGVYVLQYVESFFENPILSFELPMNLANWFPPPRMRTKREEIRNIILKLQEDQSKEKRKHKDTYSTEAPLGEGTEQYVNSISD
The experiment is classed as functional.

In experiment [11] the target is T2, Rac GTPase-activating protein 1 (Homo sapiens, UniProt Q9H0H5).
T2 sequence (Q9H0H5 whole entry): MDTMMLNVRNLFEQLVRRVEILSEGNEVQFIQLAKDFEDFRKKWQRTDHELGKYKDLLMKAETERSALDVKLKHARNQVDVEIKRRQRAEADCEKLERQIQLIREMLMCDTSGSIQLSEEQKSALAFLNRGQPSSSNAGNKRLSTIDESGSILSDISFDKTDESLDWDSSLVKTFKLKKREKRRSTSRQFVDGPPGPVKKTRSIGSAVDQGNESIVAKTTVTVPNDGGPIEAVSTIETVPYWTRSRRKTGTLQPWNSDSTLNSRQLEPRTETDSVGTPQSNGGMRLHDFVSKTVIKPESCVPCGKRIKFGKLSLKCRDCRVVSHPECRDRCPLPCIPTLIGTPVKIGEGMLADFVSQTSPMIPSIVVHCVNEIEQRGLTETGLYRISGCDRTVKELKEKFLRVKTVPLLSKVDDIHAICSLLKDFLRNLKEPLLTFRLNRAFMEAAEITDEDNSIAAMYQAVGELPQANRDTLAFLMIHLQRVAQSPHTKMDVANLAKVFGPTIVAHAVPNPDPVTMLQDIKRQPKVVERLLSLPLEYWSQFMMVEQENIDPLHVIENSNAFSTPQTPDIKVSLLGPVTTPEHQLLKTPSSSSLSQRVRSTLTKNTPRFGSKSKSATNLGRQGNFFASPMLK
Kind of experiment: MgcRacGAP GTPase-activating activity inhibitors, confirmation, biochemical, ADP Hunter fluorescence, primary and confirmatory (AID 624330). It counts as functional.

Experiment [12] deals with T3, Sentrin-specific protease 7 (Homo sapiens, UniProt Q9BQF6).
T3 sequence (Q9BQF6 whole entry): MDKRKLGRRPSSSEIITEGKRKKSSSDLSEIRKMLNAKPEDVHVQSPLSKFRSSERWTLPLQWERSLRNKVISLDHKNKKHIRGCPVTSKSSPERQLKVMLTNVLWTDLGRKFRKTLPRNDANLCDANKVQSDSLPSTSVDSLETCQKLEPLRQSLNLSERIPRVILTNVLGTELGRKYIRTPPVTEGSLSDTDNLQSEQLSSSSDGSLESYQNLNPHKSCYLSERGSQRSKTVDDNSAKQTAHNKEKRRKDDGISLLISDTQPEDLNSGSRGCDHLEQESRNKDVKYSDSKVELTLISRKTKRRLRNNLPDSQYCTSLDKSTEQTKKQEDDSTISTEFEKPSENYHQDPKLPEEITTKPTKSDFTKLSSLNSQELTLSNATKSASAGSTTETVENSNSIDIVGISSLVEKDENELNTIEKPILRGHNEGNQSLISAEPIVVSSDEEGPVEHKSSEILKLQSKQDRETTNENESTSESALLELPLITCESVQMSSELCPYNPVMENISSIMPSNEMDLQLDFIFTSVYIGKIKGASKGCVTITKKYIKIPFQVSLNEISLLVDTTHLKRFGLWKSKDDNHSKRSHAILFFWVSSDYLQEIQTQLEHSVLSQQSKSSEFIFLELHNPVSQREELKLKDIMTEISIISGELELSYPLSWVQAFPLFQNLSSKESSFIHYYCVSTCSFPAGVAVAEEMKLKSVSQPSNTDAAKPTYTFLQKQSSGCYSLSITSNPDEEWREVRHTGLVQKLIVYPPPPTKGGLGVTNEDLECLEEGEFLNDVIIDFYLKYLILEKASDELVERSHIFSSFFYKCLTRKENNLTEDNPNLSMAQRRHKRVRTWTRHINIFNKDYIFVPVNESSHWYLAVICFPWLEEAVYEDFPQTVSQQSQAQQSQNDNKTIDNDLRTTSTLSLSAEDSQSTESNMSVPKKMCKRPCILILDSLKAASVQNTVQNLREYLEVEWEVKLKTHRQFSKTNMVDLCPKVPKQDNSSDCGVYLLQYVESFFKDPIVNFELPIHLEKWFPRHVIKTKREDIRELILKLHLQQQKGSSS
It counts as functional.

For experiment [13], the target named is T4, Sentrin-specific protease 8 (Homo sapiens, UniProt Q96LD8).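 Further: luminescence read-out of SENP8 inhibition, dose-response confirmation following an ultra-high-throughput screen.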
T4 sequence (Q96LD8 whole entry): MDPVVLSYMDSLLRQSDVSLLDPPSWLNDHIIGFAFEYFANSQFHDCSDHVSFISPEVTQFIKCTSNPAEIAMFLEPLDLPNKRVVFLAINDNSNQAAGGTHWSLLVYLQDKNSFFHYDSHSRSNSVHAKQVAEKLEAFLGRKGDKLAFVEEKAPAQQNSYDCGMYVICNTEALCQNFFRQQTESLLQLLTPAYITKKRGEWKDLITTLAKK
The experiment is classed as functional.

A further experiment deals with T5, Caspase-3 (Homo sapiens, UniProt P42574).
T5 sequence (P42574 whole entry): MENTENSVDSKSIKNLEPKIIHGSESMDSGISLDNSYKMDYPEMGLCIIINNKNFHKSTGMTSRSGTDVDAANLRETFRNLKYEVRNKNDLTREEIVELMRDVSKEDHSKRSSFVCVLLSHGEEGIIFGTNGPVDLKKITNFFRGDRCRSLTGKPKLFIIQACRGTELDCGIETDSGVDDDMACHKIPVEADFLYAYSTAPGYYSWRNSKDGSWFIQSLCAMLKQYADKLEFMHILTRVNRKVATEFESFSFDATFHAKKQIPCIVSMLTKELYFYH
It counts as functional.

The subject of another experiment is HEK293. Description: inhibitors of LMP1-driven NF-kB reporter, dose response, cell-based, HEK293, luciferase, cherry-pick (AID 588343). It counts as functional. To be noted: Homo sapiens.

Structures are written as SMILES. Active and inactive are the calls of the source.

In the case of `O=c1c2ccccc2nc(/C=C/c2ccc([N+](=O)[O-])o2)n1CCCO`, the EC50 (as a rule, the concentration at which the effect is half-maximal) was 3.07 µM (active) in the experiment with BJ [1]; 6.12 µM (inconclusive) with BJ [2]; 7.21 µM (inconclusive) in the experiment on BJ [3]; 7.14 µM (inconclusive) in experiment [4]; 3.96 µM (active) in the experiment with BJ [5]; 5.06 µM (inconclusive) in experiment [6]. Also, the EC50 in [7] is 0.503 µM (active); in experiment [8], < 0.059 µM (active); in [9], < 0.059 µM (active).
As for `CCN(CC)c1ccc(Nc2nc(-c3cccnc3)cs2)cc1`, the AC50 (usually the midpoint of the concentration-response curve, whichever way the signal moves) with HeLa was 77 µM (active). The IC50 (commonly the midpoint of a concentration-inhibition curve) is 16.9 µM (active) in [10]; 185 µM (active) in experiment [11]; 4.32 µM (active) in experiment [12]; 26.7 µM (active) in [13]; 21.5 µM (active) on Caspase-3.
Turning to `COc1ccc(C=NNc2nc3ccccc3s2)cc1`, the concentration at half-maximal activity (AC50) in the experiment on HEK293 is 2.96 µM (active).

For the origin of these results see ChEMBL document CHEMBL1201862, “PubChem BioAssay data set” (2004).
